Assay results reported in patent publication US9682955B2, “Quinazoline derivatives useful as CB-1 inverse agonists” (Janssen Pharmaceutica NV, priority 2014, dated 2017).

Legend:
[1] = target: Human CB2R (Cannabanoid receptor 2) (Homo sapiens (Human), UniProt P34972); experiment: CB-2 in vitro cAMP assay (HTRF); type: cell-based; details: mean where tested more than once
Excerpt: (§1) CB1 and CB2 receptors are Gi-coupled GPCR. Activation of CB1 and CB2 receptors results in a decrease in cAMP production. An inverse agonist of the CB1 or CB2 receptor results in the opposite effect, an increase of cAMP production. The principle of this assay is based on HTRF® technology (Homogeneous Time-Resolved Fluorescence). The method is a competitive immunoassay between native cAMP produced by cells and the cAMP labeled with the fluorophore d2. The tracer binding is quantified by a Mab anti-cAMP labeled with Eu3+TBP-NHS Cryptate (supplied as part of the assay kit). The specific signal (i.e. energy transfer) is inversely proportional to the concentration of cAMP in the standard or sample.
(§2) Human CB1R (Cannabanoid receptor 1) was stably transfected in HEK-293 cells (DiscoveRx, cat: 93-0200C1). Human CB2R (Cannabanoid receptor 2) was stably transfected in HEK-293 cells (DiscoveRx, cat: 93-0201C1). Cell cultures were maintained in media: DMEM (Invitrogen Cat#12430-054) supplemented with 10% HI FBS (Invitrogen Cat#16140-071), 1% L-glutamine (Invitrogen Cat#25030-081), 0.2 mg/ml Hygromycin B (Invitrogen Cat#10687-010), 600 μg/mL G418 (Invitrogen Cat#10131-035), and 1× Penn/Strep (Invitrogen 15140-122). After cell expansion, aliquots were cryo-stored in media containing 5% DMSO (Pierce Cat#20684).
(§3) One day prior to experiments media was warmed to 37° C. and the cryo-stored cells were thawed in a 37° C. water bath. The cells were then added to media (10× volume) and the mixture was centrifugated at 1000 RPM for 5 min. The supernate was removed and the cells were re-suspended in media. A sample of the cell suspension was evaluated on a Cedex XS automated cell counter (Innovatis Systems) to determine viable cells/ml. Additional media was added to the cells to achieve a final cell density of 4E5 cells/mL. The cells were then plated into 384 well PDL white solid bottom plates (Greiner, Cat#781945) at 20 μL per well using a Multidrop (Thermo Scientific). Cells were removed from Row P (location of cAMP standards). Two columns of cells were plated into a clear bottom 384 well PDL coated plate (Greiner, Cat#781944) to view confluence the day of the assay. The cell plates were lidded and stored for 15 minutes in a hood, then transferred to an incubator (37° C., 5% CO2, 95% humidity) overnight.
(§4) DMSO was added to all wells of 384 well V bottom polystyrene plate (Greiner, Cat#781280) except to columns 1 and 13, rows O and P and wells M13-M23 and N13-N23. Test compounds (60 μL, 10 mM) were added to Column 1 and 13 (A1 through N1 and A13 through L13). Test compounds were serially diluted 1/3 by transferring and mixing 20 μl sample with 40 μL DMSO.
(§5) DMSO (40 μL) was added to wells of 384 well V bottom polystyrene plate: O2 through O11, M14 through M23, N14 through N23, and O14 through O23. AM630 (also known as [6-iodo-2-methyl-1-[2-(4-morpholinyl)ethyl]-1H-indol-3-yl](4-methoxyphenyl)-methanone, Cayman Chemical, Cat#10006974) (60 μL, 10 mM) was added to O1; and 1-(2,4-dichlorophenyl)-7-[(4-fluorophenyl)methylene]-4,5,6,7-tetrahydro-N-1-piperidinyl-1H-indazole-3-carboxamide (60 μL, 10 mM) was added to N13. The control was serially diluted 1/3 by transferring and mixing 20 μl sample with 40 μL DMSO. This process resulted 11 doses per control, 10 mM to […].
(§6) Cells plated the day prior to the assay in clear bottom plates were viewed on an inverse microscope to ensure confluency in the range of 60-75%. […]

[2] = target: Human CB1R (Cannabanoid receptor 1) (Homo sapiens (Human), UniProt P21554); experiment: CB-1 in vitro cAMP assay (HTRF); type: cell-based; details: mean where tested more than once
Excerpt: as §1, §2, §3, §4, §5, §6

Sequence of Human CB2R (Cannabanoid receptor 2) (P34972 whole entry): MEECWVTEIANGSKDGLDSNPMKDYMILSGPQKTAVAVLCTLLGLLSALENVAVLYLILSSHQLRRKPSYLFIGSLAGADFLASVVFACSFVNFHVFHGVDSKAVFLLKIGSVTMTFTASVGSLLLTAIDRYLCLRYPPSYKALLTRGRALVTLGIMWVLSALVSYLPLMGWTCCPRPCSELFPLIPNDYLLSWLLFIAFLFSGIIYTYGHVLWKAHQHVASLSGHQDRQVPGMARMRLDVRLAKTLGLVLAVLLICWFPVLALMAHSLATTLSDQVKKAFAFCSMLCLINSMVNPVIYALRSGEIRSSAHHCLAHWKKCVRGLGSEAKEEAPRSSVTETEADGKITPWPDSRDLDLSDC
Sequence of Human CB1R (Cannabanoid receptor 1) (P21554 whole entry): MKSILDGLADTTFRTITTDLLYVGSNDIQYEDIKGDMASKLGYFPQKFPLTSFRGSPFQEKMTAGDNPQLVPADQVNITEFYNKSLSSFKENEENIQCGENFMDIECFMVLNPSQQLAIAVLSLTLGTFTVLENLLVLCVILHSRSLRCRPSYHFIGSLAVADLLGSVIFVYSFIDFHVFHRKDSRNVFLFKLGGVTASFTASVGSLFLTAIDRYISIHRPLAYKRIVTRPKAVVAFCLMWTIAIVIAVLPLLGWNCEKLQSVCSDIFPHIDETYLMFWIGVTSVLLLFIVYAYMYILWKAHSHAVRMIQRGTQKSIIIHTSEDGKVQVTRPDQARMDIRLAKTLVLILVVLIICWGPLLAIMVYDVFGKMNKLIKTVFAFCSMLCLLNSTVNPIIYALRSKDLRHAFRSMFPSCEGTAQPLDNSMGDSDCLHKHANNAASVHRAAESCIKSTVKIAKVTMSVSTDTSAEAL

| Structure (SMILES) | EC50 [1] [µM] | EC50 [2] [µM] |
| --- | --- | --- |
| O=C(O)c1csc(CN2CCC(Nc3ncnc4ccc(C(c5ccc(Cl)cc5)c5ccc(Cl)cc5)cc34)CC2)c1 [Compound #18, 5-((4-((6-(bis(4-chlorophenyl)methyl)quinazolin-4-yl)amino)piperidin-1-yl)methyl)thiophene-3-carboxylic acid] | 6.26 | 0.165 |
| O=S(=O)(N1CCC(Nc2ncnc3ccc(C(c4ccc(Cl)cc4)c4ccc(Br)cc4)cc23)CC1)C(F)(F)F (stereo not shown) [Compound #20, 6-((4-bromophenyl)(4-chlorophenyl)methyl)-N-(1-((trifluoromethyl)sulfonyl)piperidin-4-yl)quinazolin-4-amine] | 0.218 | 0.017 |
| O=C(NCCCOc1ccc(CO)cc1)c1ccc(S(=O)(=O)N2CCC(Nc3ncnc4ccc(C(c5ccc(Cl)cc5)c5ccc(Cl)cc5)cc34)CC2)cc1 [Compound #26, 4-((4-((6-(bis(4-chlorophenyl)methyl)quinazolin-4-yl)amino)piperidin-1-yl)sulfonyl)-N-(3-(4-(hydroxymethyl)phenoxy)propyl)benzamide] | > 10 | 0.02 |
| O=C(NCCCOc1ccc(CCl)cc1)c1ccc(S(=O)(=O)N2CCC(Nc3ncnc4ccc(C(c5ccc(Cl)cc5)c5ccc(Cl)cc5)cc34)CC2)cc1 [Compound #30, 4-((4-((6-(bis(4-chlorophenyl)methyl)quinazolin-4-yl)amino)piperidin-1-yl)sulfonyl)-N-(3-(4-(chloromethyl)phenoxy)propyl)benzamide] | > 10 | 0.446 |
| NCCCCOc1nc(NCc2cccc(C(F)(F)F)c2)c2cc(C(c3ccc(Cl)cc3)c3ccc(Cl)cc3)ccc2n1 [Compound #31, 2-(4-aminobutoxy)-6-(bis(4-chlorophenyl)methyl)-N-(3-(trifluoromethyl)benzyl)quinazolin-4-amine] | 4.12 | 0.077 |
| Oc1ccc(N2CCC(Nc3ncnc4ccc(C(c5ccc(Cl)cc5)c5ccc(Cl)cc5)cc34)CC2)cc1 [Compound #32, 4-(4-((6-(bis(4-chlorophenyl)methyl)quinazolin-4-yl)amino)piperidin-1-yl)phenol] | 0.371 | 0.015 |
| O=C(O)c1cccc(CN2CCC(Nc3ncnc4ccc(C(c5ccc(Cl)cc5)c5ccc(Cl)cc5)cc34)CC2)c1 [Compound #37, 3-((4-((6-(bis(4-chlorophenyl)methyl)quinazolin-4-yl)amino)piperidin-1-yl)methyl)benzoic acid] | 6.76 | 0.146 |
| O=C(NC(CO)(CO)CO)c1ccc(S(=O)(=O)N2CCC(Nc3ncnc4ccc(C(c5ccc(Cl)cc5)c5ccc(Cl)cc5)cc34)CC2)cc1 [Compound #41, 4-((4-((6-(Bis(4-chlorophenyl)methyl)quinazolin-4-yl)amino)piperidin-1-yl)sulfonyl)-N-(1,3-dihydroxy-2-(hydroxymethyl)propan-2-yl)benzamide] | 1.47 | 0.008 |
| COC(=O)c1ccc(CN2CCC(Nc3ncnc4ccc(C(c5ccc(Cl)cc5)c5ccc(Cl)cc5)cc34)CC2)cc1 [Compound #43, Methyl 4-((4-((6-(bis(4-chlorophenyl)methyl)quinazolin-4-yl)amino)piperidin-1-yl)methyl)benzoate] | > 10 | 0.059 |
| O=C(c1ccc(S(=O)(=O)NCCO)cc1)N1CCC(Nc2ncnc3ccc(C(c4ccc(Cl)cc4)c4ccc(Cl)cc4)cc23)CC1 [Compound #45, 4-(4-((6-(bis(4-chlorophenyl)methyl)quinazolin-4-yl)amino)piperidine-1-carbonyl)-N-(2-hydroxyethyl)benzenesulfonamide] | 1.2 | 0.222 |
| COc1nc(NC2CCN(S(=O)(=O)c3ccc(C(=O)O)cc3)CC2)c2cc(C(c3ccc(Cl)cc3)c3ccc(Cl)cc3)ccc2n1 [Compound #46, 4-((4-((6-(bis(4-chlorophenyl)methyl)-2-methoxyquinazolin-4-yl)amino)piperidin-1-yl)sulfonyl)benzoic acid] | 0.616 | 0.031 |

The remaining lines, values ahead:

| EC50 [1] [µM] | EC50 [2] [µM] | Structure (SMILES) |
| --- | --- | --- |
| 0.157 | 0.006 | N#Cc1ccc(C(c2ccc(Cl)cc2)c2ccc3ncnc(NC4CCN(S(=O)(=O)C(F)(F)F)CC4)c3c2)cc1 (stereo not shown) [Compound #19, 4-((4-chlorophenyl)(4-((1-((trifluoromethyl)sulfonyl)piperidin-4-yl)amino)quinazolin-6-yl)methyl)benzonitrile] |
| 0.28 | 0.023 | COc1cc(S(=O)(=O)N2CCC(Nc3ncnc4ccc(C(c5ccc(Cl)cc5)c5ccc(Cl)cc5)cc34)CC2)ccc1C(=O)O [Compound #22, 4-((4-((6-(bis(4-chlorophenyl)methyl)quinazolin-4-yl)amino)piperidin-1-yl)sulfonyl)-2-methoxybenzoic acid] |
| 0.434 | 0.019 | O=C(O)c1ccc(S(=O)(=O)N2CCC(Nc3ncnc4ccc(C(c5ccc(Cl)cc5)c5ccc(Cl)cc5)cc34)CC2)cc1Cl [Compound #23, 4-((4-((6-(bis(4-chlorophenyl)methyl)quinazolin-4-yl)amino)piperidin-1-yl)sulfonyl)-2-chlorobenzoic acid] |
| 0.278 | 0.009 | O=C(O)c1ccc(S(=O)(=O)N2CCC(Nc3ncnc4ccc(C(c5ccc(Cl)cc5)c5ccc(Cl)cc5)cc34)CC2)s1 [Compound #25, 5-((4-((6-(bis(4-chlorophenyl)methyl)quinazolin-4-yl)amino)piperidin-1-yl)sulfonyl)thiophene-2-carboxylic acid] |
| > 10 | 0.069 | Oc1cccc(CN2CCC(Nc3ncnc4ccc(C(c5ccc(Cl)cc5)c5ccc(Cl)cc5)cc34)CC2)c1 [Compound #28, 3-((4-((6-(bis(4-chlorophenyl)methyl)quinazolin-4-yl)amino)piperidin-1-yl)methyl)phenol] |
| 0.917 | 0.227 | CS(=O)(=O)NCCOc1nc(NC2CCN(S(=O)(=O)c3ccc(C(=O)O)cc3)CC2)c2cc(C(c3ccc(Cl)cc3)c3ccc(Cl)cc3)ccc2n1 [Compound #33, 4-((4-((6-(bis(4-chlorophenyl)methyl)-2-(2-(methylsulfonamido)ethoxy)quinazolin-4-yl)amino)piperidin-1-yl)sulfonyl)benzoic acid] |
| 3.64 | 0.014 | NC(=O)c1cccc(CN2CCC(Nc3ncnc4ccc(C(c5ccc(Cl)cc5)c5ccc(Cl)cc5)cc34)CC2)c1 [Compound #36, 3-((4-((6-(bis(4-chlorophenyl)methyl)quinazolin-4-yl)amino)piperidin-1-yl)methyl)benzamide] |
| 0.514 | 0.041 | O=C(O)c1ccc(S(=O)(=O)N2CCC(Nc3nc(OCCO)nc4ccc(C(c5ccc(Cl)cc5)c5ccc(Cl)cc5)cc34)CC2)cc1 [Compound #39, 4-((4-((6-(bis(4-chlorophenyl)methyl)-2-(2-hydroxyethoxy)quinazolin-4-yl)amino)piperidin-1-yl)sulfonyl)benzoic acid] |
| 1.67 | 0.01 | O=C(COc1nc(NCc2cccc(C(F)(F)F)c2)c2cc(C(c3ccc(Cl)cc3)c3ccc(Cl)cc3)ccc2n1)NCCO [Compound #40, 2-((6-(bis(4-chlorophenyl)methyl)-4-((3-(trifluoromethyl)benzyl)amino)quinazolin-2-yl)oxy)-N-(2-hydroxyethyl)acetamide] |
